# According to US12570639B2, “Tetrahydroquinoline derivative and medicinal use thereof” (Toray Industries, Inc., priority 2020, dated 2026):
# Counter-ions that a name gives are not always drawn.
# Tested on: Human fibrosarcoma cells (HT-1080 cells)
# Assay: In vitro inhibitory action against ferroptosis (Erastin-induced cell death, Cell Counting Kit-8)
# Format: cell-based
# Conditions: Erastin 3 μmol/L, 24 hours
# Description: The inhibitory action against ferroptosis of the tetrahydroquinoline derivative (I) or a pharmaceutically acceptable salt thereof was evaluated with Human fibrosarcoma cells (HT-1080 cells), by using, as an index, the inhibitory action against the cell death induced by treatment with a ferroptosis inducer, Erastin.
# HT-1080 cells (ATCC) were cultured in a mixture (hereinafter referred to as vehicle) composed of DMEM/F12 (Thermo Fisher Scientific, Inc.), a final concentration of 10% fetal bovine serum (Thermo Fisher Scientific, Inc.), and a final concentration of 1% penicillin-streptomycin solution (Nacalai Tesque, Inc.). Cells were seeded into 96-well plates (Corning Inc.) at 5×10^4 cells/well and cultured overnight.
# A test compound was dissolved in DMSO, and the resulting solution was diluted in the vehicle to a final concentration of 1% DMSO and then used. […] Thirty minutes after the addition of the test compound, Erastin (Cayman Chemical Co.) diluted in the vehicle at a final concentration of 3 μmol/L was added to wells. The wells added with the test compound and Erastin were grouped as “test compound,” and the wells added with no test compound and no Erastin were grouped as “background,” and the wells added with no test compound but with Erastin were grouped as “control.” Twenty-four hours after the addition of Erastin, 5 μL of Cell Counting Kit-8 (Dojindo Laboratories) was added to each well and incubated for 4 hours, and the absorbance at 450 nm was then measured for each well (N=2). […] Ferroptosis inhibition rate (%)=[1−{(Average absorbance value at 450 nm measured when a test compound is added)−(Average absorbance value at 450 nm measured in the background)}/{(Average absorbance value at 450 nm measured in the control)−(Average absorbance value at 450 nm measured in the background)}]×100 Equation 1
# [1] = evaluation concentration 10 μmol/L
# [2] = evaluation concentration 30 μmol/L
# [3] = evaluation concentration 50 μmol/L
# [4] = evaluation concentration 25 μmol/L
Structure (SMILES),Ferroptosis inhibition rate (%) [2] [%],also measured
"Cc1ccc2c(c1)CCC(c1ccc(C(N)=O)cc1)N2 (stereo not drawn) [Example 111, 4-(6-methyl-1,2,3,4-tetrahydroquinolin-2-yl)benzamide]",–,Ferroptosis inhibition rate (%) [1]: 98.91%
"O=C1CCc2cc(C3CCc4ccc(F)cc4N3)ccc2N1 (stereo not drawn) [Example 139, 7-fluoro-1,2,3,3′,4,4′-hexahydro-[2,6′-biquinolin]-2′(1′H)-one]",60.63,–
"Fc1ccccc1C1CCc2ccccc2N1 (stereo not drawn) [Example 28, 2-(2-fluorophenyl)-1,2,3,4-tetrahydroquinoline]",–,Ferroptosis inhibition rate (%) [3]: 109.4%
"c1ccc(C2CCc3cc(CN4CCOCC4)ccc3N2)cc1 (stereo not drawn) [Example 59, 4-((2-phenyl-1,2,3,4-tetrahydroquinolin-6-yl)methyl)morph-oline]",76.73,–
"CC(C)(O)c1ccc2c(c1)CCC(c1ccccc1)N2 (stereo not drawn) [Example 57, 2-(2-phenyl-1,2,3,4-tetrahydroquinolin-6-yl)propan-2-ol]",89.18,–
"COc1ccccc1C1CCc2ccccc2N1 (stereo not drawn) [Example 6, 2-(2-methoxyphenyl)-1,2,3,4-tetrahydroquinoline]",–,Ferroptosis inhibition rate (%) [3]: 90.22%
"COC(=O)C1(c2ccccc2)CCc2ccccc2N1 (stereo not drawn) [Example 93, methyl 2-phenyl-1,2,3,4-tetrahydroquinoline-2-carboxylate]",89.78,–
"CC(C)(C)NC(=O)Nc1ccc2c(c1)CCC(c1ccccc1)N2 (stereo not drawn) [Example 76, 1-(tert-butyl)-3-(2-phenyl-1,2,3,4-tetrahydroquinolin-6-yl)urea]",–,Ferroptosis inhibition rate (%) [3]: 85.43%
"CC(C)(C)CC(=O)Nc1ccc2c(c1)CCC(c1ccccc1)N2 (stereo not drawn) [Example 78, 3,3-dimethyl-N-(2-phenyl-1,2,3,4-tetrahydroquinolin-6-yl)butanamide]",–,Ferroptosis inhibition rate (%) [4]: 88.56%
"NC(=O)Nc1ccc2c(c1)CCC(c1ccccc1)N2 (stereo not drawn) [Example 77, 1-(2-phenyl-1,2,3,4-tetrahydroquinolin-6-yl)urea]",101.6,–
"COc1ccc(C2CCc3ccccc3N2)cc1 (stereo not drawn) [Example 4, 2-(4-methoxyphenyl)-1,2,3,4-tetrahydroquinoline]",–,Ferroptosis inhibition rate (%) [3]: 99.10%
"O=C(Cc1ccc2c(c1)CCC(c1ccccc1)N2)NCC1CC1 (stereo not drawn) [Example 153, N-(cyclopropylmethyl)-2-(2-phenyl-1,2,3,4-tetrahydroquin-olin-6-yl)acetamide]",110.1,–
"CNC(=O)c1cccc(C2CCc3ccccc3N2)c1 (stereo not drawn) [Example 44, N-methyl-3-(1,2,3,4-tetrahydroquinolin-2-yl)benzamide]",–,Ferroptosis inhibition rate (%) [3]: 114.3%
"O=C1NCc2cc(C3CCc4ccccc4N3)ccc21 (stereo not drawn) [Example 124, 5-(1,2,3,4-tetrahydroquinolin-2-yl)isoindolin-1-one]",106.3,–
"OCc1ccc(C2CCc3ccccc3N2)cc1 (stereo not drawn) [Example 49, (4-(1,2,3,4-tetrahydroquinolin-2-yl)phenyl)methanol]",99.20,–
"OCc1ccc2c(c1)NC(c1ccccc1)CC2 (stereo not drawn) [Example 52, (2-phenyl-1,2,3,4-tetrahydroquinolin-7-yl)methanol]",–,Ferroptosis inhibition rate (%) [3]: 74.96%
"Fc1ccc2c(c1)CCC(c1cn[nH]c1)N2 (stereo not drawn) [Example 98, 6-fluoro-2-(1H-pyrazol-4-yl)-1,2,3,4-tetrahydroquinoline]",98.95,–
"CC(C)c1ccc2c(c1)CCC(c1ccccc1)N2 (stereo not drawn) [Example 54, 6-isopropyl-2-phenyl-1,2,3,4-tetrahydroquinoline]",109.9,–
"NS(=O)(=O)c1ccc(C2CCc3cc(C(F)(F)F)ccc3N2)cc1 (stereo not drawn) [Example 142, 4-(6-(trifluoromethyl)-1,2,3,4-tetrahydroquinolin-2-yl)benzenesulfonamide]",64.86,–
"NS(=O)(=O)c1ccc(C2CNc3ccccc3C2)cc1 (stereo not drawn) [Example 167, 4-(1,2,3,4-tetrahydroquinolin-3-yl)benzenesulfonamide]",76.82,–
"FC(F)(F)c1ccccc1C1CCc2ccccc2N1 (stereo not drawn) [Example 10, 2-(2-(trifluoromethyl)phenyl)-1,2,3,4-tetrahydroquinoline]",–,Ferroptosis inhibition rate (%) [3]: 103.9%
"Cc1ccc2c(c1)CCC(c1ccoc1)N2 (stereo not drawn) [Example 102, 2-(furan-3-yl)-6-methyl-1,2,3,4-tetrahydroquinoline]",77.96,–
"Cc1ccc2c(c1)CCC(c1ccc(NS(N)(=O)=O)cc1)N2 (stereo not drawn) [Example 114, N-(4-(6-methyl-1,2,3,4-tetrahydroquinolin-2-yl)phenyl)sulfamoylamine]",87.04,–

Structure (SMILES),Ferroptosis inhibition rate (%) [2] [%],also measured
"Nc1ccc2c(c1)CCC(c1ccccc1)N2 (stereo not drawn) [Example 64, 2-phenyl-1,2,3,4-tetrahydroquinoline-6-amine dihydrochloride]",–,Ferroptosis inhibition rate (%) [4]: 82.89%
"CC(C)(C)NC(=O)Nc1ccc2c(c1)CCC(c1ccccc1)N2 (stereo not drawn) [Example 128, 1-(tert-butyl)-3-(2-phenyl-1,2,3,4-tetrahydroquinolin-6-yl)urea]",91.83,–
"c1ccc2c(c1)CCC(c1cn[nH]c1)N2 (stereo not drawn) [Example 13, 2-(1H-pyrazol-4-yl)-1,2,3,4-tetrahydroquinoline]",119.6,–
"Cc1ccc2c(c1)CCC(c1ccc(C(N)=O)cc1)N2 (stereo not drawn) [Example 110, 4-(6-methyl-1,2,3,4-tetra-hydroquinolin-2-yl)benzamide]",–,Ferroptosis inhibition rate (%) [1]: 103.0%
"Clc1ccc2c(c1)NCC(c1ccccc1)C2 (stereo not drawn) [Example 164, 7-chloro-3-phenyl-1,2,3,4-tetrahydroquinoline]",72.33,–
"Fc1cc(F)c2c(c1)CCC(c1ccccc1)N2 (stereo not drawn) [Example 86, 6,8-difluoro-2-phenyl-1,2,3,4-tetrahydroquinoline]",–,Ferroptosis inhibition rate (%) [3]: 98.80%
"Cn1cc(C2CCc3ccccc3N2)cn1 (stereo not drawn) [Example 14, 2-(1-methyl-1H-pyrazol-4-yl)-1,2,3,4-tetrahydroquinoline]",–,Ferroptosis inhibition rate (%) [3]: 97.39%
"COc1ccc(C2CCc3ccccc3N2)cn1 (stereo not drawn) [Example 15, 2-(6-methoxypyridin-3-yl)-1,2,3,4-tetrahydroquinoline]",89.22,–
"COc1ccc(C2CCc3ccc(OC)cc3N2)cc1 (stereo not drawn) [Example 8, 7-methoxy-2-(4-methoxyphenyl)-1,2,3,4-tetrahydroquinoline]",–,Ferroptosis inhibition rate (%) [3]: 100.6%
"CCNC(=O)c1ccc(C2CCc3ccccc3N2)cc1 (stereo not drawn) [Example 40, N-ethyl-4-(1,2,3,4-tetrahydroquinolin-2-yl)benzamide]",111.1,–
"c1ccc(C2CCc3cc(N4CCCCC4)ccc3N2)cc1 (stereo not drawn) [Example 72, 2-phenyl-6-(piperidin-1-yl)-1,2,3,4-tetrahydroquinoline]",110.6,–
"NC(=O)c1cccc(C2CCc3ccccc3N2)c1 (stereo not drawn) [Example 46, 3-(1,2,3,4-tetrahydroquinolin-2-yl)benzamide]",109.0,–
"c1cncc(C2CNc3ccccc3C2)c1 (stereo not drawn) [Example 170, 3-(pyridin-3-yl)-1,2,3,4-tetrahydroquinoline]",93.41,–
"CCN(CC)C(=O)c1ccc(C2CCc3ccccc3N2)cc1 (stereo not drawn) [Example 39, N,N-diethyl-4-(1,2,3,4-tetrahydroquinolin-2-yl)benzamide]",101.5,–
"Fc1cccc2c1NC(c1ccccc1)CC2 (stereo not drawn) [Example 80, 8-fluoro-2-phenyl-1,2,3,4-tetrahydroquinoline]",103.9,–
"CS(=O)(=O)Nc1ccc2c(c1)CCC(c1ccccc1)N2 (stereo not drawn) [Example 75, N-(2-phenyl-1,2,3,4-tetrahydroquinolin-6-yl)methanesulfonamide]",110.6,–
"C[C@@H]1C[C@H](c2ccccc2)Nc2ccccc21 (relative stereo) [Example 90, (2R*,4R*)-4-methyl-2-phenyl-1,2,3,4-tetrahydroquinoline]",102.4,–
"Clc1ccc2c(c1)CCC(c1cn[nH]c1)N2 (stereo not drawn) [Example 96, 6-chloro-2-(1H-pyrazol-4-yl)-1,2,3,4-tetrahydroquinoline]",98.01,–
"c1ccc(C2CCc3ccccc3N2)nc1 (stereo not drawn) [Example 53, 2-(pyridin-2-yl)-1,2,3,4-tetrahydroquinoline]",–,Ferroptosis inhibition rate (%) [3]: 111.3%
"CC(C)(C)OC(=O)Nc1ccc2c(c1)CCC(c1ccccc1)N2 (stereo not drawn) [Example 63, tert-butyl (2-phenyl-1,2,3,4-tetrahydroquinolin-6-yl)carbamate]",–,Ferroptosis inhibition rate (%) [3]: 68.73%
"OC[C@@H]1C[C@H](c2ccccc2)Nc2ccccc21 (relative stereo) [Example 89, ((2R*,4R*)-2-phenyl-1,2,3,4-tetrahydroquinolin-4-yl)methanol]",99.12,–
"Cc1ccc2c(c1)CCC(c1ccc(S(N)(=O)=O)cc1)N2 (stereo not drawn) [Example 100, 4-(6-methyl-1,2,3,4-tetrahydroquinolin-2-yl)benzenesulfonamide]",103.5,–
